Experimental findings from patent publication US7425579B2, “Methods for inhibiting activity of polyamine transporters” (Universite Laval, priority 1998, dated 2008) are described below.

Experiment [1] concerns polyamine transport system. Description: Time course of [3H]spermidine accumulation in ZR-75-1 cells. As to conditions: after 8 h. Type of experiment: cell-based, human. The procedure:
In particular, exponentially growing T-47D (A) or ZR-75-1 cells (B and C) were transferred to serum-free medium containing 5 μM [^3H]spermidine, and either 200 μM cycloheximide (CHX) (●), 100 μM BNSD-X (□), CHX plus BNSD-X (▪), or vehicle only (∘). Cells were incubated for the time intervals indicated prior to harvesting for detrmination of total intracellular radioactivity. ZR-75-1 cells were either pre-incubated for 48 h in the absence (panel B) or presence of 1 mM DFMO (panel C) prior to the experiment shown; DFMO was also included during the labeling period in the appropriate group. Data are presented as the mean±SD for triplicate cultures from one representative experiment;
The effect of BNSD-X on the time course of [^3H]spermidine accumulation was determined in ZR-75-1 and T-47D cells pre-incubated in the presence or absence of DFMO before addition of radioactive substrate and the transport inhibitor. Subgroups of cell cultures were also treated with cycloheximide in order to prevent the polyamine-dependent induction of ODC antizyme, which rapidly down-regulates polyamine transport activity through an unknown mechanism (Lessard et al. (1995) J. Biol. Chem. 270, 1685-1694; Coffino et al. (2001) Nat Rev Mol Cell Biol. 2:188-194). […]

The test system of another experiment is T-47D cells. Description: Reversal of DFMO-induced cytostasis by exogenous spermidine in T-47D cells. Conditions: 50 μM BNSD-X (167-fold excess over 0.3 μM spermidine); 2 mM DFMO. Type of experiment: cell-based, human. The procedure:
FIGS. 6A, 6B, 6C and 6D are graph showing that antagonism of DFMO-induced cytostasis by exogenous spermidine depends on the polyamine and linker structure of the compounds used in a method according to a preferred embodiment of the invention. In particular, T-47D cells were grown for 8-9 d with the indicated concentrations of spermidine in medium containing 1 mM aminoguanidine, in the presence of DFMO (●), transport inhibitor (□), DFMO plus transport inhibitor (▪), or in the absence of either agent (∘), and total DNA content per culture was then determined. Panels A, B, C, and D describe the effect of BNSD-X, BSD-X, BNSD-3 and BSD-3, respectively. Data are presented as the mean±SD for triplicate cultures from one out of at least two identical experiments;
FIGS. 8A and 8B are graphs representing the time course of the effect of a compound used in a method according to a preferred embodiment of the invention on rescue of DFMO-induced cytostasis by exogenous spermidine. In particular, at time zero, T-47D (panel A) or CHO-K1 (panel B) were seeded at 1×10^4 or 5×10^3 cells/well, respectively, in medium containing 1 mM aminoguanidine, plus either 0.3 μM spermidine (Spd, ●), 2 mM DFMO (□), Spd+DFMO (▪), 50 μM (A) or 100 μM (B) BNSD-X (Δ), BNSD-X+Spd (▴), BNSD-X+DFMO (□), BNSD-X+Spd+DFMO (▾), or vehicle only (∘). At the indicated time, total DNA content/well was determined. Data are presented as the mean±SD for triplicate cultures from one representative experiment;
To determine the ability of polyamine transport antagonists to potentiate DFMO-induced inhibition of cell proliferation in the presence of exogenous polyamines, cells were grown for the indicated period in growth medium supplemented with 1 mM aminoguanidine, and either DFMO (1 to 5 mM), the indicated transport inhibitor (50 or 100 μM), or the combination thereof, as well as increasing concentrations of spermidine (0.1 to 300 μM). Fresh medium was added every other day, and cell mass was determined at various time points during the period of exponential growth, or at the end of the experimental period. For the latter experiments, the FBS supplement was replaced with dextran-coated charcoal-treated FBS (5%, v/v) plus 0.5 μg/ml insulin in the case of T-47D, ZR-75-1 and MCF-7 cells (U.S. Pat. No. 6,083,496).

For the molecule `NCCCN(CCCN)Cc1ccc(CN(CCCN)CCCN)cc1` [28a, N,N,N′,N′-tetrakis-(3-aminopropyl)-p-diaminoxylene], the “inhibition of spermidine accumulation, without cycloheximide” value in experiment [1] (BNSD-X:spermidine 20:1) was 65%. Besides, the “inhibition of spermidine accumulation, with cycloheximide” value in experiment [1] (BNSD-X:spermidine 20:1, 200 μM cycloheximide) came out at 90%. In addition, the “effect on growth inhibition by DFMO, T-47D” value with T-47D cells is given as “did not markedly increase the extent of growth inhibition observed with DFMO alone”.
